{"source": "patent US12545659B2", "about": "“IRAK degraders and uses thereof” (Kymera Therapeutics, Inc., priority 2019, dated 2026)"}
{"molecular_target": "T1, IRAK4 (Homo sapiens, UniProt Q9NWZ3)", "T1 construct": "endogenous in cells; host or cells: OCI-LY10", "T1 sequence (Q9NWZ3 1-460)": "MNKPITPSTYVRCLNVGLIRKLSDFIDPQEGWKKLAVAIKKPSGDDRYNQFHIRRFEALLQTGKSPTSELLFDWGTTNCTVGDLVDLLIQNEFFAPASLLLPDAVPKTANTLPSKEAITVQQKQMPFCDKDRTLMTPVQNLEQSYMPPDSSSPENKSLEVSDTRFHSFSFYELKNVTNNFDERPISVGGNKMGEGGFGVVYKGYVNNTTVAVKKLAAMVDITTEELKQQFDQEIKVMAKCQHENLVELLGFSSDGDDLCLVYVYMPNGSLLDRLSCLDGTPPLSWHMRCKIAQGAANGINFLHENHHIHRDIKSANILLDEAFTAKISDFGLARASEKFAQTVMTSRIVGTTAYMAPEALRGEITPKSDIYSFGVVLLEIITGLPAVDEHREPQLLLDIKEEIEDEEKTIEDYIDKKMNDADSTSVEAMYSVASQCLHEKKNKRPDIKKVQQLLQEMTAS", "experiment": "IRAK4 MSD Degradation in OCI-LY10", "type": "cell-based", "conditions": "OCI-LY10 cells, 4 hrs incubation, read-out: IRAK4 degradation in OCI-LY10 at 4 hrs: DC50", "how_it_was_run": "(§1)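 IRAK4 remaining in lysates was read by Meso Scale electrochemiluminescence sandwich (2H9 capture, Y279 plus SULFO-TAG detection). Cells were exposed 4 to 24 h at 37 °C to eight 3-fold dilutions from 1 to 10 μM final top; three-parameter logistic fit gave DC50.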", "units": {"DC50": "nM"}}
{"smiles": "Cc1cccc(C(=O)Nc2cc3cn([C@H]4CC[C@H](CN5CCC6(CC5)CC(CCc5cccc7c5n(C)c(=O)n7C5CCC(=O)NC5=O)C6)CC4)nc3cc2C(C)(C)O)n1", "note": "(some centres unmarked) [I-276]", "DC50": "< 50"}
{"smiles": "CN(C[C@H]1CC[C@H](n2cc3cc(NC(=O)c4cccc(C(F)(F)F)n4)c(N4CCOCC4)cc3n2)CC1)C1CCN(Cc2cccc3c2n(C)c(=O)n3C2CCC(=O)NC2=O)CC1", "note": "(some centres unmarked) [I-214]", "DC50": "50 to 100"}
{"smiles": "Cn1c(=O)n(C2CCC(=O)NC2=O)c2cccc(C3CCN(C[C@H]4CC[C@H](n5cc6cc(NC(=O)c7cccc(C(F)(F)F)n7)c(C(F)F)cc6n5)CC4)CC3)c21", "note": "(some centres unmarked) [I-263]", "DC50": "< 50"}
{"smiles": "Cn1c(=O)n(C2CCC(=O)NC2=O)c2cccc([C@H]3CC[C@@H](N(C)C[C@H]4CC[C@H](n5cc6cc(NC(=O)c7cccc(C(F)(F)F)n7)c(C(C)(C)O)cc6n5)CC4)CC3)c21", "note": "(single isomer, unassigned) [I-174, N-[2-[4-[[[4-[1-(2,6-dioxo-3-piperidyl)-3-methyl-2-oxo-benzimidazol-4-yl]cyclohexyl]-methyl-amino]methyl]cyclohexyl]-6-(1-hydroxy-1-methyl-ethyl)indazol-5-yl]-6-(trifluoromethyl)pyridine-2-carboxamide]", "DC50": "< 50"}
{"smiles": "COc1cc2nn([C@H]3CC[C@H](CN4CCC(CCc5cccc6c5n(C)c(=O)n6C5CCC(=O)NC5=O)CC4)CC3)cc2cc1NC(=O)c1cccc(C(F)(F)F)n1", "note": "(some centres unmarked) [I-242]", "DC50": "< 50"}
{"smiles": "Cn1c(=O)n(C2CCC(=O)NC2=O)c2cccc(CCC3CC4(CCN(C[C@H]5CC[C@H](n6cc7cc(NC(=O)c8cnn9cccnc89)c(C(F)F)cc7n6)CC5)CC4)C3)c21", "note": "(some centres unmarked) [I-299]", "DC50": "< 50"}
{"smiles": "Cn1c(=O)n(C2CCC(=O)NC2=O)c2cccc(CCC3CC4(CCN(C[C@H]5CC[C@H](n6cc7cc(NC(=O)c8cccc(OC(F)(F)F)n8)c(C(C)(C)O)cc7n6)CC5)CC4)C3)c21", "note": "(some centres unmarked) [I-204]", "DC50": "50 to 100"}
{"smiles": "COc1cc2nn([C@H]3CC[C@H](CN4CCC(CCNc5cccc6c5n(C)c(=O)n6C5CCC(=O)NC5=O)CC4)CC3)cc2cc1NC(=O)c1ccc(F)c(C)n1", "note": "(some centres unmarked) [I-144]", "DC50": "< 50"}
{"smiles": "Cn1c(=O)n(C2CCC(=O)NC2=O)c2cccc(C3CCN(C[C@H]4CC[C@H](n5cc6cc(NC(=O)c7cccc(C(C)(C)F)n7)c(C(F)F)cc6n5)CC4)CC3)c21", "note": "(some centres unmarked) [I-103]", "DC50": "50 to 100"}
{"smiles": "Cn1c(=O)n(C2CCC(=O)NC2=O)c2cccc([C@H]3CC[C@@H](N(C)C[C@H]4CC[C@H](n5cc6cc(NC(=O)c7cccc(C(F)(F)F)n7)c(C(F)F)cc6n5)CC4)CC3)c21", "note": "(single isomer, unassigned) [I-165, N-[6-(difluoromethyl)-2-[4-[[[4-[1-(2,6-dioxo-3-piperidyl)-3-methyl-2-oxo-benzimidazol-4-yl]cyclohexyl]-methyl-amino]methyl]cyclohexyl]indazol-5-yl]-6-(trifluoromethyl)pyridine-2-carboxamide]", "DC50": "< 50"}
{"smiles": "Cn1c(=O)n(C2CCC(=O)NC2=O)c2cccc(NC3CC4(CCN(C[C@H]5CC[C@H](n6cc7cc(NC(=O)c8cccc(C(F)(F)F)n8)c(C(C)(C)O)cc7n6)CC5)CC4)C3)c21", "note": "(some centres unmarked) [I-153]", "DC50": "< 50"}
{"smiles": "CN(C[C@H]1CC[C@H](n2cc3cc(NC(=O)c4cccc(C(F)(F)F)n4)c(C(C)(C)O)cc3n2)CC1)C1CCC2(CC1)CC(Cc1cccc3c1n(C)c(=O)n3C1CCC(=O)NC1=O)C2", "note": "(some centres unmarked) [I-74]", "DC50": "< 50"}
{"smiles": "COc1cc2nn([C@H]3CC[C@H](CN4CCN(CCc5cccc6c5n(C)c(=O)n6C5CCC(=O)NC5=O)CC4)CC3)cc2cc1NC(=O)c1cccc(C(F)(F)F)n1", "note": "(some centres unmarked) [I-96]", "DC50": "< 50"}
{"smiles": "COc1cc2nn([C@H]3CC[C@H](CNc4cccc5c4n(C)c(=O)n5C4CCC(=O)NC4=O)CC3)cc2cc1NC(=O)c1cccc(C(F)(F)F)n1", "note": "(some centres unmarked) [I-150]", "DC50": "500 to 1000"}
{"smiles": "CN(C[C@H]1CC[C@H](n2cc3cc(NC(=O)c4cccc(C(F)(F)F)n4)c(C(C)(C)O)cc3n2)CC1)C1CCN(c2cccc3c2n(C)c(=O)n3C2CCC(=O)NC2=O)CC1", "note": "(some centres unmarked) [I-80]", "DC50": "< 50"}
{"smiles": "Cc1cccc(C(=O)Nc2cc3cn([C@H]4CC[C@H](CN(C)C5CCN(Cc6cccc7c6n(C)c(=O)n7C6CCC(=O)NC6=O)CC5)CC4)nc3cc2C(C)(C)O)n1", "note": "(some centres unmarked) [I-48]", "DC50": "< 50"}
{"smiles": "Cn1c(=O)n(C2CCC(=O)NC2=O)c2cccc(C#CCCCNC[C@H]3CC[C@H](n4cc5cc(NC(=O)c6cccc(C(F)(F)F)n6)c(C(C)(C)O)cc5n4)CC3)c21", "note": "(some centres unmarked) [I-60, N-[2-[4-[[5-[1-(2,6-dioxo-3-piperidyl)-3-methyl-2-oxo-benzimidazol-4-yl]pent-4-ynylamino]methyl]cyclohexyl]-6-(1-hydroxy-1-methyl-ethyl)indazol-5-yl]-6-(trifluoromethyl)pyridine-2-carboxamide]", "DC50": "< 50"}
{"molecular_target": "T1, IRAK4", "experiment": "IRAK4 MSD Degradation in OCI-LY10", "type": "cell-based", "conditions": "OCI-LY10 cells, 24 hrs incubation, read-out: IRAK4 degradation in OCI-LY10 at 24 hrs: DC50", "how_it_was_run": "as §1", "units": {"DC50": "nM"}}
{"smiles": "COc1cc2nn([C@H]3CC[C@H](CN4CCC(COCCCNc5cccc6c5C(=O)N(C5CCC(=O)NC5=O)C6=O)CC4)CC3)cc2cc1NC(=O)c1cccc(C(C)(C)F)n1", "note": "(some centres unmarked) [I-231]", "DC50": "50 to 100"}
{"smiles": "COc1cc2nn([C@H]3CC[C@H](CN(C)[C@H]4CC[C@H](CNc5cccc6c5C(=O)N(C5CCC(=O)NC5=O)C6=O)CC4)CC3)cc2cc1NC(=O)c1cccc(C(C)(C)F)n1", "note": "(some centres unmarked) [I-90]", "DC50": "100 to 500"}
{"smiles": "COc1cc2nn([C@H]3CC[C@H](CN4CCC5(CC4)CC(CNc4cccc6c4C(=O)N(C4CCC(=O)NC4=O)C6=O)C5)CC3)cc2cc1NC(=O)c1cccc(C(F)F)n1", "note": "(some centres unmarked) [I-209]", "DC50": "< 50"}
{"smiles": "CC(C)(O)c1cc2nn([C@H]3CC[C@H](CN4CCC5(CC4)CC(CNc4cccc6c4C(=O)N(C4CCC(=O)NC4=O)C6=O)C5)CC3)cc2cc1NC(=O)c1cccc(S(F)(F)(F)(F)F)n1", "note": "(some centres unmarked) [I-187]", "DC50": "50 to 100"}
{"smiles": "COc1cc2nn([C@H]3CC[C@H](CN(C)C4CCN(c5cccc6c5C(=O)N(C5CCC(=O)NC5=O)C6=O)CC4)CC3)cc2cc1NC(=O)c1cccc(C(F)(F)F)n1", "note": "(some centres unmarked) [I-76]", "DC50": "100 to 500"}
{"smiles": "CN(C[C@H]1CC[C@H](n2cc3cc(NC(=O)c4cccc(C(F)(F)F)n4)c(C(C)(C)O)cc3n2)CC1)[C@H]1CC[C@@]2(CC1)C[C@H](Nc1cccc3c1C(=O)N(C1CCC(=O)NC1=O)C3=O)C2", "note": "(some centres unmarked) [I-126]", "DC50": "50 to 100"}
{"smiles": "COc1cc2nc([C@H]3CC[C@H](CN4CC5(CCC(CNc6cccc7c6C(=O)N(C6CCC(=O)NC6=O)C7=O)CC5)C4)CC3)oc2cc1NC(=O)c1cccc(C(C)(F)F)n1", "note": "(some centres unmarked) [I-292]", "DC50": "50 to 100"}
{"smiles": "COc1cc2nn([C@H]3CC[C@H](CN4CCC5(CC4)CC(CCNc4cccc6c4C(=O)N(C4CCC(=O)NC4=O)C6=O)C5)CC3)cc2cc1NC(=O)c1cccc(C(C)(F)F)n1", "note": "(single isomer, unassigned) [I-129]", "DC50": "50 to 100"}
{"smiles": "COc1cc2nn(C3CCC(CN4CC5(CCC(CNc6cccc7c6C(=O)N(C6CCC(=O)NC6=O)C7=O)CC5)C4)CC3)cc2cc1NC(=O)c1cccc(C(C)(F)F)n1", "note": "(centres unmarked) [I-122]", "DC50": "50 to 100"}
{"smiles": "CC(C)(O)c1cc2nn([C@H]3CC[C@H](CN4CCO[C@@H](CCCNc5cccc6c5C(=O)N(C5CCC(=O)NC5=O)C6=O)C4)CC3)cc2cc1NC(=O)c1cccc(C(F)(F)F)n1", "note": "(some centres unmarked) [I-233]", "DC50": "< 50"}
{"smiles": "CC(C)(O)c1cc2nn([C@H]3CC[C@H](CN4CCC(COCCCNc5cccc6c5C(=O)N(C5CCC(=O)NC5=O)C6=O)CC4)CC3)cc2cc1NC(=O)c1cccc(C(C)(C)F)n1", "note": "(some centres unmarked) [I-59]", "DC50": "50 to 100"}
{"smiles": "CCOc1cc2nn([C@H]3CC[C@H](CN4CCC5(CC4)CC(CCNc4cccc6c4C(=O)N(C4CCC(=O)NC4=O)C6=O)C5)CC3)cc2cc1NC(=O)c1cccc(C(F)(F)F)n1", "note": "(some centres unmarked) [I-212]", "DC50": "100 to 500"}
{"smiles": "CC(C)(O)COc1cc2nn([C@H]3CC[C@H](CN4CCC5(CC4)CC(CNc4cccc6c4C(=O)N(C4CCC(=O)NC4=O)C6=O)C5)CC3)cc2cc1NC(=O)c1cccc(C(C)(C)F)n1", "note": "(some centres unmarked) [I-118]", "DC50": "50 to 100"}
{"smiles": "COc1cc2nc([C@H]3CC[C@H](CN4CCC5(CC4)CC(Nc4cccc6c4C(=O)N(C4CCC(=O)NC4=O)C6=O)C5)CC3)oc2cc1NC(=O)c1cnn2cccnc12", "note": "(some centres unmarked) [I-321]", "DC50": "< 50"}
{"smiles": "COc1cc2nn([C@H]3CC[C@H](CN(C)[C@H]4CC[C@H](Nc5cccc6c5C(=O)N(C5CCC(=O)NC5=O)C6=O)CC4)CC3)cc2cc1NC(=O)c1cccc(S(F)(F)(F)(F)F)n1", "note": "(some centres unmarked) [I-318]", "DC50": "50 to 100"}
{"smiles": "CC(C)(O)c1cc2nn([C@H]3CC[C@H](CN4CCC5(CC4)CC(CNc4cccc6c4C(=O)N(C4CCC(=O)NC4=O)C6=O)C5)CC3)cc2cc1NC(=O)c1cccc(C(F)(F)F)n1", "note": "(some centres unmarked) [I-42]", "DC50": "< 50"}
{"smiles": "CC(C)(O)c1cc2nn([C@H]3CC[C@H](CN4CCO[C@H](CCCNc5cccc6c5C(=O)N(C5CCC(=O)NC5=O)C6=O)C4)CC3)cc2cc1NC(=O)c1cccc(C(F)(F)F)n1", "note": "(some centres unmarked) [I-64]", "DC50": "< 50"}
{"smiles": "COc1cc2nn([C@H]3CC[C@H](CN4CC5(CC([C@H](C)CNc6cccc7c6C(=O)N(C6CCC(=O)NC6=O)C7=O)C5)C4)CC3)cc2cc1NC(=O)c1cccc(C(F)(F)F)n1", "note": "(some centres unmarked) [I-332]", "DC50": "< 50"}
{"smiles": "Cc1nc(C(=O)Nc2cc3cn([C@H]4CC[C@H](CN(C)[C@H]5CC[C@H](CNc6cccc7c6C(=O)N(C6CCC(=O)NC6=O)C7=O)CC5)CC4)nc3cc2C(C)(C)O)ccc1F", "note": "(some centres unmarked) [I-308]", "DC50": "50 to 100"}
{"smiles": "COc1cc2nn([C@H]3CC[C@H](CN4CCC(O[C@H]5CC[C@H](CNc6cccc7c6C(=O)N(C6CCC(=O)NC6=O)C7=O)CC5)CC4)CC3)cc2cc1NC(=O)c1cccc(C(C)(C)F)n1", "note": "(some centres unmarked) [I-311]", "DC50": "50 to 100"}
{"smiles": "CN(CCCO[C@H]1C[C@H](Nc2cccc3c2C(=O)N(C2CCC(=O)NC2=O)C3=O)C1)C[C@H]1CC[C@H](n2cc3cc(NC(=O)c4cccc(S(F)(F)(F)(F)F)n4)c(C(C)(C)O)cc3n2)CC1", "note": "(some centres unmarked) [I-290]", "DC50": "50 to 100"}
